Experiment [1] relates to Human keratinocytes (HaCaT). In words: GSH modulation assay against hydrogen peroxide induced oxidative stress (GSH ELISA). It is filed as cell-based. Conditions: H2O2 500 μm 3 hours, tested concentration 17.61 μg/ml (positive control). As to the method: For conducting the analysis, 10 mg of Pine bark extract from Pinus roxburghii (Pinorox®) was dissolved in a DMSO (Dimethyl sulfoxide) solution. The volume of the test solution was made up using DMEM-HG (Dulbecco's Modified eagle Medium) and supplemented with 2% inactivated FBS (Fetal bovine serum) to acquire a solution with concentration of 10 mg/ml. The test solution was further proceeded with sterilization using syringe filtration. For carrying out the cytotoxic analysis, a two-fold serial dilution was prepared. The cell line of Human keratinocytes (HaCaT) was obtained from Addex Bio, USA and were cultured in DMEM-HG supplemented media with 10% inactivated fetal bovine serum (FBS), penicillin (100 IU/mL), streptomycin ([…]) and amphotericin B (5 μg/mL) in a wet atmosphere of 5% CO2 at a temperature of 37° C. until confluent. […] The samples were analyzed to estimate the levels of GSH using Elab science GSH ELISA kit by following the manufacturer's instruction. […]

A short description of experiment [2]: Total antioxidant capacity (TAC) assay, sulphuric acid/sodium phosphate/ammonium molybdate reagent. To be noted: concentration 1000 μg/ml, 90 minutes at 95° C. As to the method: The assay was performed to evaluate the total antioxidant capacity of a Pinorox® i.e. Pine bark extract from Pinus roxburghii against the standard ascorbic acid for in-vitro study. Antioxidants are compounds that are capable of inhibiting the process of oxidation that occurs under the influence of atmospheric oxygen or reactive oxygen species. The antioxidants are employed for stabilizing polymeric products, petrochemicals, cosmetics and food stuff along with pharmaceuticals. Antioxidants are involved in defense mechanisms of an organism against the associated pathologies in order to attack the free radicals. The test is carried out to check the total antioxidant capacity of a pine bark extract in order to avoid nutritional loss. The total antioxidant capacity of Pinorox® i.e. Pine bark extract from Pinus roxburghii was found out to be 756.993±0.150 mM equivalent of the ascorbic acid having 1000±0.027 mM at 1000 μg/mL. Pine bark extract of 5.5 mg each/ascorbic acid were subjected to dissolve in 0.5 ml of DMSO (Dimethyl sulfoxide) in a separate container. 0.244 ml of 0.6 M sulphuric acid was added to a 15 ml of distilled water. […] The absorbance was recorded at […] via ELISA (enzyme-linked immunosorbent assay) reader and the values were recorded. The total activity of antioxidant was expressed as mM which is equivalent of ascorbic acid. […]

On to `O=C1O[C@H]([C@@H](O)CO)C(O)=C1O` [Ascorbic acid], for which the “% Increase in GSH level over hydrogen peroxide control” value in experiment [1] turned out to be 95.59±0.03%. Besides, the “TAC (total antioxidant capacity)” value in experiment [2] is on record as 1000 ± 0.027 mM equivalent of ascorbic acid; in experiment [2] (listed as ascorbic acid) it was 1000±0.027 mM equivalent of ascorbic acid.

The values above are taken from patent US20240165182A1, “METHOD OF EXTRACTION OF PROANTHOCYANIDINS COMPOUND FROM PINE BARK OF PINUS ROXBURGHII” (AMBE PHYTOEXTRACTS PVT. LTD., priority 2022, published 2024).
